Test results as given in paper PMC5569891 (Chembiochem : a European journal of chemical biology, 2017).

Molecular target: T1, HsSQS (Homo sapiens, UniProt P37268)
T1 sequence (P37268 1-417): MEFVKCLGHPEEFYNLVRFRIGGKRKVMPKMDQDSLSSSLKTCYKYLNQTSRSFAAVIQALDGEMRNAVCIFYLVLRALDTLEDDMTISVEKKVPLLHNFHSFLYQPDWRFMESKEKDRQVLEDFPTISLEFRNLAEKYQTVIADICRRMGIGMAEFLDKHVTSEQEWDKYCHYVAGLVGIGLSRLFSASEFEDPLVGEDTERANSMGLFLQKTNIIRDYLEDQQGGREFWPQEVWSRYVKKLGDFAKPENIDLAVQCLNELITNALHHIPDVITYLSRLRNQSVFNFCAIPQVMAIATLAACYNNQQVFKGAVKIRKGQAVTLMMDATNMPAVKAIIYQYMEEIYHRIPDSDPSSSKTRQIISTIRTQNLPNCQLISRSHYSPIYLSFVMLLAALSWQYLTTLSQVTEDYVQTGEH
Assay: LC-MS of products
Assay type: biochemical
Details: no NADPH

Compound: CC(C)=CCC/C(C)=C/CC/C(C)=C/COP(=O)(O)OP(=O)(O)O [compound 1, farnesyl diphosphate]
- LC-MS of products (PSPP): LC-MS traces showing reaction products of NmHpnD+FPP (in blue) and HsSQS+FPP (in red)
